Measured values from ChEMBL document CHEMBL4261541, “Synthesis and evaluation of oxindoles as promising inhibitors of the immunosuppressive enzyme indoleamine 2,3-dioxygenase 1” (Medchemcomm, 2017).
Values belong to the molecule of their own block, whether it stands above or below them. The source made the active and inactive calls. The rule behind the calls is not given here.

What was measured:
[1] = target: T1, Indoleamine 2,3-dioxygenase 1 (Homo sapiens, UniProt P14902); test: Binding affinity to human ferrous-IDO1 assessed as blue shift in soret peak at 50 uM by UV-Visible spectrophotometric method
Target sequence in this assay (P14902 whole entry, looked up): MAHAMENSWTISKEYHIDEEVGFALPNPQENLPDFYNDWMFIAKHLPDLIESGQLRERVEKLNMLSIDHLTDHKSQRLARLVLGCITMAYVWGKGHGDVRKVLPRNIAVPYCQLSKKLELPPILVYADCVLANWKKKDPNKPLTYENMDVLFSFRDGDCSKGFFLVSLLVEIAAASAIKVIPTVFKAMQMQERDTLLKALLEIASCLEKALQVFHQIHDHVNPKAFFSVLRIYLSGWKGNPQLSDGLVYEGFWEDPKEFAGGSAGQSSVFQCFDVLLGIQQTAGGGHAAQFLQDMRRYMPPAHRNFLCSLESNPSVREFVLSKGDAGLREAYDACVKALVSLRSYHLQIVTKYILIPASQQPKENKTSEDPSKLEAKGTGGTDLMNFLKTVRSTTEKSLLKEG

[2] = target: T1, Indoleamine 2,3-dioxygenase 1; test: Inhibition of recombinant human IDO1 assessed as reduction in conversion of L-tryptophan to kynurenine by methylene blue dye based spectrometric method
Target sequence in this assay (P14902 whole entry): as the sequence (P14902 whole entry, looked up) above

A549 = test: Cytotoxicity against human A549 cells assessed as reduction in cell viability at 2 times IDO1 inhibitory IC50 after 48 hrs by MTT assay; type: functional, cell-based
J774.A1 = test: Cytotoxicity against mouse J774A.1 cells assessed as reduction in cell viability at 2 times IDO1 inhibitory IC50 after 48 hrs by MTT assay; type: cell-based; conditions: j774.a1, 48 h
MDA-MB-231 [3] = test: Cytotoxicity against human MDA-MB-231 cells assessed as reduction in cell viability at 2 times IDO1 inhibitory IC50 after 48 hrs by MTT assay; type: functional, cell-based
[4] = target: T1, Indoleamine 2,3-dioxygenase 1; test: Competitive inhibition of recombinant human IDO1 assessed as reduction in conversion of L-tryptophan to N-formylkynurenine at 200 to 1500 nM by methylene blue dye based spectrometric method
Target sequence in this assay (P14902 whole entry, looked up): as above

[5] = target: T1, Indoleamine 2,3-dioxygenase 1; test: Inhibition of IFNgamma-stimulated IDO1 in human MDA-MB-231 cells preincubated for 4 hrs followed by tryptophan addition measured after 5 hrs by methylene blue dye based spectrophotometric method; type: cell-based
Target sequence in this assay (P14902 whole entry): as the sequence (P14902 whole entry, looked up) above

[6] = target: T1, Indoleamine 2,3-dioxygenase 1; test: Binding affinity to human ferric-IDO1 assessed as blue shift in soret peak at 50 uM by UV-Visible spectrophotometric method
Target sequence in this assay (P14902 whole entry, looked up): as above

MDA-MB-231 [7] = test: Cytotoxicity against human MDA-MB-231 cells assessed as induction of morphological changes at 2 times IDO1 inhibitory IC50 after 48 hrs by cytell imaging analysis; type: functional, cell-based
HeLa = test: Cytotoxicity against human HeLa cells assessed as reduction in cell viability at 2 times IDO1 inhibitory IC50 after 48 hrs by MTT assay; type: functional, cell-based
Homo sapiens = organism: Homo sapiens; test: Selectivity ratio of IC50 for human TDO to IC50 for human IDO1
[8] = target: Tryptophan 2,3-dioxygenase (Homo sapiens, UniProt P48775); test: Inhibition of recombinant human TDO assessed as reduction in conversion of L-tryptophan to kynurenine by methylene blue dye based spectrometric method
[9] = target: T1, Indoleamine 2,3-dioxygenase 1; test: Uncompetitive inhibition of recombinant human IDO1 assessed as reduction in conversion of L-tryptophan to N-formylkynurenine at 200 to 1500 nM by methylene blue dye based spectrometric method
Target sequence in this assay (P14902 whole entry, looked up): as above

Chain of Tryptophan 2,3-dioxygenase (P48775 whole entry): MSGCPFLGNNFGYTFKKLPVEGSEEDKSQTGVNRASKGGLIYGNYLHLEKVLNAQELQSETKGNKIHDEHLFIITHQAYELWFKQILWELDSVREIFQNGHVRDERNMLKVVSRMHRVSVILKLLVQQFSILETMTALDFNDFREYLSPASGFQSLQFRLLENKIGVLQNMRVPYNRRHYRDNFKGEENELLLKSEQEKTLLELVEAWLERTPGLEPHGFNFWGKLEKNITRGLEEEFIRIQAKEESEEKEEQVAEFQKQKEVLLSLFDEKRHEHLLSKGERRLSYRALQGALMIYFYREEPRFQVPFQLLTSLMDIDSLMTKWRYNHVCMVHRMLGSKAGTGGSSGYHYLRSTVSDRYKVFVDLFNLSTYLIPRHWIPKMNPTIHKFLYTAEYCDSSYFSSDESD

SMILES: O=C1Nc2ccccc2/C1=N/Nc1cccc(Cl)c1
Ratio IC50 (Homo sapiens): 31

SMILES: O=C1Nc2ccccc2/C1=N/c1ccccc1Br
IC50 [2]: 1240 nM | inhibition [4]: Active | Ratio IC50 (Homo sapiens): 37 | IC50 [8]: 46.2 µM

SMILES: CC(=O)CC(=O)CC1(O)C(=O)Nc2ccc(Cl)cc21 (stereo unspecified)
IC50 [2]: 890 nM | inhibition [9]: Active

SMILES: CC(=O)/C=C1\C(=O)Nc2ccccc21
IC50 [2]: 1690 nM

SMILES: O=C1Nc2ccccc2/C1=N/Nc1ccccc1C(F)(F)F
IC50 [2]: 1580 nM | Ratio IC50 (Homo sapiens): 24 | IC50 [8]: 38.3 µM

SMILES: Cn1cc(C[C@H](N)C(=O)O)c2ccccc21
Activity (MDA-MB-231 [3]): inactive | Activity (MDA-MB-231 [7]): inactive

SMILES: CC(=O)/C=C1\C(=O)Nc2ccc(Cl)cc21
IC50 [2]: 360 nM | Activity (A549): inactive | Activity (J774.A1): Non-Toxic | Activity (MDA-MB-231 [3]): inactive | inhibition [4]: Active | EC50 [5]: 460 nM | Activity (MDA-MB-231 [7]): inactive | Activity (HeLa): inactive | Ratio IC50 (Homo sapiens): 152 | IC50 [8]: 54.7 µM

SMILES: CC(C)(C)OC(=O)N[C@@H](CC1C(=O)Nc2ccccc21)C(=O)O (stereo partly specified)
IC50 [2]: 1950 nM

SMILES: O=C1Nc2ccccc2/C1=N/Nc1ccc(Cl)cc1
IC50 [2]: 630 nM | Activity (A549): inactive | Activity (J774.A1): Non-Toxic | Activity (MDA-MB-231 [3]): inactive | EC50 [5]: 420 nM | Activity (MDA-MB-231 [7]): inactive | inhibition [9]: Active | Activity (HeLa): inactive | Ratio IC50 (Homo sapiens): 85 | IC50 [8]: 53.4 µM

SMILES: O=C1Nc2ccccc2/C1=N\c1ccc(Cl)cc1
IC50 [2]: 2560 nM

SMILES: CCOC(=O)C(C(=O)OCC)=C1C(=O)Nc2ccccc21
IC50 [2]: 930 nM | Ratio IC50 (Homo sapiens): 76 | IC50 [8]: 71 µM

SMILES: O=C1N=c2ccccc2=C1NNc1cccc(Cl)c1
IC50 [2]: 1510 nM | IC50 [8]: 46.8 µM

SMILES: CC(=O)CC1(O)C(=O)Nc2ccc(Cl)cc21 (stereo unspecified)
IC50 [2]: 1970 nM

SMILES: O=C1CCCC(=O)C1C1(O)C(=O)Nc2ccccc21 (stereo unspecified)
IC50 [2]: 4730 nM

SMILES: O=C1Nc2ccccc2/C1=N/Nc1cccc([N+](=O)[O-])c1
IC50 [2]: 3740 nM

SMILES: CC(=O)CC(=O)/C=C1\C(=O)Nc2ccc(Cl)cc21
inhibition [1]: Active | IC50 [2]: 190 nM | Activity (A549): inactive | Activity (J774.A1): Non-Toxic | Activity (MDA-MB-231 [3]): inactive | inhibition [4]: Active | EC50 [5]: 330 nM | Activity [6]: Active | Activity (MDA-MB-231 [7]): inactive | Activity (HeLa): inactive | Ratio IC50 (Homo sapiens): 210 | IC50 [8]: 39.9 µM

SMILES: Cc1ccc(S(=O)(=O)N/N=C2\C(=O)Nc3ccccc32)cc1
IC50 [2]: 1780 nM | Ratio IC50 (Homo sapiens): 30 | IC50 [8]: 52.9 µM

SMILES: CC(=O)CC(=O)CC1(O)C(=O)Nc2ccccc21 (stereo unspecified)
inhibition [1]: Active | IC50 [2]: 450 nM | Activity (A549): inactive | Activity (J774.A1): Non-Toxic | Activity (MDA-MB-231 [3]): inactive | inhibition [4]: Active | EC50 [5]: 490 nM | Activity [6]: 9 nm | Activity (MDA-MB-231 [7]): inactive | Activity (HeLa): inactive | Ratio IC50 (Homo sapiens): 124 | IC50 [8]: 56.1 µM

The next lines start with results.

inhibition [1]: Active | IC50 [2]: 620 nM | inhibition [4]: Active | EC50 [5]: 480 nM | Activity [6]: Active | Ratio IC50 (Homo sapiens): 135 | IC50 [8]: 83.5 µM
SMILES: CC(=O)N[C@@H](CC1C(=O)Nc2ccccc21)C(=O)O (mixture of isomers)
Activity (A549): inactive | Activity (J774.A1): Non-Toxic | Activity (MDA-MB-231 [3]): inactive | Activity (MDA-MB-231 [7]): inactive | Activity (HeLa): inactive

IC50 [2]: 2250 nM
SMILES: O=C(N[C@@H](CC1C(=O)Nc2ccccc21)C(=O)OCc1ccccc1)OCc1ccccc1 (stereo partly specified)

IC50 [2]: 3390 nM | Ratio IC50 (Homo sapiens): 18 | IC50 [8]: 60.2 µM
SMILES: N[C@@H](CC1C(=O)Nc2ccccc21)C(=O)O (stereo partly specified)

IC50 [2]: 3970 nM
SMILES: NCCC1C(=O)Nc2ccccc21 (stereo unspecified)

IC50 [2]: 1580 nM
SMILES: O=C(N[C@@H](CC1C(=O)Nc2ccccc21)C(=O)O)c1ccccc1 (mixture of isomers)

IC50 [2]: 2310 nM | Ratio IC50 (Homo sapiens): 25 | IC50 [8]: 58.3 µM
SMILES: O=C(NCCC1C(=O)Nc2ccccc21)OCc1ccccc1 (stereo unspecified)

IC50 [2]: 1950 nM
SMILES: O=C1Nc2ccccc2C1=NNc1ccccc1

IC50 [2]: 13600 nM
SMILES: N[C@@H](CC1C(=O)Nc2ccccc21)C(=O)OCc1ccccc1 (stereo partly specified)

inhibition [1]: Active | IC50 [2]: 1280 nM | inhibition [4]: Active | EC50 [5]: 1260 nM | Activity [6]: Active | Ratio IC50 (Homo sapiens): 21 | IC50 [8]: 27.2 µM
SMILES: O=C(N[C@@H](CC1C(=O)Nc2ccccc21)C(=O)O)OCc1ccccc1 (stereo partly specified)
Activity (A549): inactive | Activity (J774.A1): Non-Toxic | Activity (MDA-MB-231 [3]): inactive | Activity (MDA-MB-231 [7]): inactive | Activity (HeLa): inactive

IC50 [2]: 8330 nM
SMILES: NC(=O)[C@@H](N)CC1C(=O)Nc2ccccc21 (stereo partly specified)
